Source: patent US4272540A, “14-Methoxymorphinan-6-one compounds and therapeutic methods of treating pain and drug dependence with them” (SISA, Incorporated, priority 1979, dated 1981)
Counter-ions that a name gives are not always drawn. Like-named read-outs stand apart in the source and are kept apart here.

Key:
rats = assay: Test B: narcotic antagonist activity (modified rat tail flick test, morphine antagonism); format: in vivo, male albino Wistar rats; set-up: key to AD50 (Test B): inactive at dose stated: IA is intended to mean "inactive"; details: for ED50: Rattus norvegicus; for AD50 (Test B): inactive at dose stated: at 10 mg/kg, interperitoneally
Experimental: (B) Narcotic antagonist activity in rats (modified rat tail flick test).
The narcotic antagonist effects of test compounds were determined by a modification of the rat tail flick procedure of Harris and Pierson (J. Pharmacol. Exp. Ther. 143:141[1964]).
(§1) Male albino Wistar rats (100-120 g) were used for this study. A rat's tail is so placed so as to cover a photocell. Heat is applied by a lamp in a reflector with a timer being connected to the lamp and photocell so that the timer goes on when the light is turned on and is turned off when the photocell is uncovered. A rheostat, incorporated into a heating lamp is used to adjust the intensity of the light falling on the tail of the rat such that the rat's control reaction time is from two to four seconds. Animals with a control reaction time outside this range are rejected. The rheostat adjustment is made only if a significant proportion (more than 2 out of every 10 rats) of the reaction times are outside the range of two to four seconds. Groups of five rats were used each time, and two control times were determined at 60 and 30 minutes prior to subcutaneous injection of the drug.
(§2) Thirty minutes after the last control run the test drug was given interperitoneally. This was followed ten minutes later by an ED80 dose of morphine subcutaneously. The animals were retested at 20 minutes after the morphine injection. Control animals were given vehicle and morphine only. The data were calculated as follows: [formula]
(§3) The data were plotted on log-probit paper and AD50 values, i.e., the dose required to inhibit the morphine effect by 50% within 95% condidence limits, were determined by the method of Litchfield and Wilcoxon.
(§4) The results of these experiments are set out in Table I where R, R1 and R2 refer to the proceeding general formula for the compounds of the present invention. In the column under R2 CBM stands for cyclobutylmethyl, CPM for cyclopropylmethyl, THF for tetrahydrofurfuryl and DMA for dimethylallyl.

[1] = Overall agonist/antagonist classification from Table I (Tests A and B); format: in vivo, mice (Test A); rats (Test B); details: from ED50 and AD50 values of Table I
Experimental: (§5) The analgesic effects of test compounds were determined in mice by use of the acetic acid writhing test described by B. J. R. Whittle, Brit. J. Pharmacol., 22:296 (1964). In this test at least three groups of five male CD-1 mice each were given subcutaneous doses of the test drug dissolved in either distilled water or distilled water acidified with HCl depending on the solubility of the compound. In all cases, 0.4 milliliter of a 0.5% V/V acetic acid in distilled water solution was administered intraperitoneally 15 minutes post drug. The number of writhes in a 20 minute interval beginning 5 minutes after the acetic acid injection were determined and compared with the number of writes in control groups which had received only acetic acid.
(§6) The ED50 dose, i.e., the dose required to reduce the number of writhes by 50%, was determined graphically from a plot of % inhibition as a probit versus log dose. Confidence limits of 95% were calculated on the basis of those results falling in the range 16-84% inhibition. See Litchfield, J. T. and Wilcoxon, F., J. Pharmacol. Exp. Ther., 96, 99-113, (1949).
as §1, §2, §3

mice = assay: Test A: acetic acid mouse writhing test (analgesic effects); format: in vivo, male CD-1 mice; details: for ED50: Mus musculus, sc
Experimental: (A) Analgesic effects upon mice (acetic acid writhing test).
as §5
Percent inhibition of writhing was calculated as: [formula]
as §6, §4

[2] = prior art report; cited from earlier work
[3] = sc, rats, tail flick, drug interperitoneally 10 min before ED80 morphine s.c., dose inhibiting morphine effect by 50%, read-out: AD50 (Test B, narcotic antagonist activity)
[4] = subcutaneous, 15 min before acetic acid, dose reducing writhes by 50%, read-out: ED50 (Test A, acetic acid mouse writhing test)
[5] = rats, tail flick, drug interperitoneally 10 min before ED80 morphine s.c., dose inhibiting morphine effect by 50%

COc1ccc2c(c1)[C@]13CCN(CC4CC4)[C@H](C2)[C@]1(OC)[C@@H](C)CC(=O)C3.Cl [TR-5209, 17-Cyclopropylmethyl-3,14-dimethoxy-8β-methylmorphinan-6-one Hydrochloride]
ED50 (rats; [3]): 0.45 mg/kg
agonist/antagonist profile [1]: pure narcotic antagonists
ED50 (Test A): inactive at dose stated (mice; at 13 mg/kg, subcutaneous): IA (IA is intended to mean "inactive")

CO[C@@]12[C@@H](C)CC(=O)C[C@@]13CCN(CC1CC1)[C@@H]2Cc1ccc(O)cc13.Cl [TR-5210, 17-Cyclopropylmethyl-3-hydroxy-14-methoxy-8β-methylmorphinan-6-one Hydrochloride]
ED50 (rats; rats, tail flick vs morphine, unit inferred, read-out: AD50 (the source's name)): 0.004 mg/kg
ED50 (rats; [3]): 0.004 mg/kg
potency as narcotic antagonist relative to naloxone (rats; naloxone as comparator): 10 times
agonist/antagonist profile ([1]; Hydrochloride): pure narcotic antagonist
ED50 (mice; [4]): 30 mg/kg

COc1ccc2c(c1)[C@]13CCN(CC4CCC4)[C@H](C2)[C@]1(OC)[C@@H](C)CC(=O)C3.Cl [TR-5211, 17-Cyclobutylmethyl-3,14-dimethoxy-8β-methylmorphinan-6-one Hydrochloride]
ED50 (rats; [3]): 0.41 mg/kg
agonist/antagonist profile [1]: pure narcotic antagonists
ED50 (Test A): inactive at dose stated (mice; at 10 mg/kg, subcutaneous): IA (IA is intended to mean "inactive")

CO[C@@]12[C@@H](C)CC(=O)C[C@@]13CCN(CC1CCC1)[C@@H]2Cc1ccc(O)cc13 [TR-5212, 17-Cyclobutylmethyl-3-hydroxy-14-methoxy-8β-methylmorphinan-6-one Hydrochloride]
ED50 (rats; [3]): 0.18 mg/kg
agonist/antagonist profile [1]: pure narcotic antagonists
ED50 (Test A): inactive at dose stated (mice; at 10 mg/kg, subcutaneous): IA (IA is intended to mean "inactive")

COc1ccc2c(c1)[C@]13CCN(CC4CCC4)[C@H](C2)[C@]1(OC)[C@H](C)CC(=O)C3.Cl [TR-5219, 17-Cyclobutylmethyl-3,14-dimethoxy-8α-methylmorphinan-6-one Hydrochloride]
AD50 (Test B): inactive at dose stated (rats; rats, tail flick vs morphine): IA
narcotic antagonist activity (in words) (rats; rats, tail flick vs morphine): not a narcotic antagonist
ED50 (mice; [4]): 15.1 mg/kg
ED50 (mice; writhing, unit inferred, read-out: ED50 value): 15.1 mg/kg
analgesic activity (in words) (mice; writhing): only a weak analgesic

CO[C@@]12[C@H](C)CC(=O)C[C@@]13CCN(CC1CCC1)[C@@H]2Cc1ccc(O)cc13 [TR-5249, 17-Cyclobutylmethyl-3-hydroxy-14-methoxy-8α-methylmorphinan-6-one]
ED50 (rats; [3]): 3 mg/kg
ED50 (mice; [4]): 0.14 mg/kg

CO[C@@]12[C@@H](C)CC(O)C[C@@]13CCN(CC1CC1)[C@@H]2Cc1ccc(O)cc13 (stereo partly drawn) [TR-5250, 17-Cyclopropylmethyl-14-methoxy-8β-methylmorphinan-3,6-diol Hydrochloride]
ED50 (rats; [3]): 0.32 mg/kg
less active as narcotic antagonist than TR-5210 (rats; rats, tail flick vs morphine, compared with TR-5210): ~2 orders of magnitude
ED50 (Test A): inactive at dose stated (mice; at 10 mg/kg, subcutaneous): IA (IA is intended to mean "inactive")

CO[C@@]12[C@H](C)CC(=O)C[C@@]13CCN(CC1CC1)[C@@H]2Cc1ccc(O)cc13.Cl [TR-5284, 17-Cyclopropylmethyl-3-hydroxy-14-methoxy 8α-methylmorphinan-6-one Hydrochloride]
ED50 (rats; [3]): < 3 mg/kg
narcotic antagonist activity (in words) (rats; rats, tail flick vs morphine): is a narcotic antagonist
agonist/antagonist profile [1]: pure narcotic antagonists
ED50 (Test A): inactive at dose stated (mice; at 10 mg/kg, subcutaneous): IA (IA is intended to mean "inactive")

CO[C@@]12[C@H](C)CC(O)C[C@@]13CCN(CC1CC1)[C@@H]2Cc1ccc(O)cc13.Cl (stereo partly drawn) [TR-5285, 17-Cyclopropylmethyl-14-methoxy-8α-methylmorphinan-3,6-diol Hydrochloride]
ED50 (rats; [3]): > 10 mg/kg
agonist/antagonist profile [1]: not active as an analgesic or a narcotic antagonist
ED50 (mice; [4]): > 10 mg/kg

COc1ccc2c(c1)[C@]13CCN(CC4CCC4)[C@H](C2)[C@]1(OC)CCC(=O)C3 [TR-5296, 17-Cyclobutylmethyl-3,14-dimethoxymorphinan-6-one Hydrochloride]
AD50 (Test B): inactive at dose stated (rats; rats, tail flick vs morphine): 1A
agonist/antagonist profile [1]: pure analgesics
ED50 (mice; [4]): 0.77 mg/kg

COc1ccc2c(c1)[C@]13CCN(CC4CC4)[C@H](C2)[C@]1(OC)CCC(=O)C3 [TR-5305, 17-Cyclopropylmethyl-3,14-dimethoxymorphinan-6-one]
AD50 (Test B, narcotic antagonist activity) (rats; [5]): 1.60 mg/kg
agonist/antagonist profile [1]: mixed analgesic (agonist) and narcotic antagonist activity
ED50 (mice; [4]): 0.98 mg/kg

CO[C@@]12CCC(=O)C[C@@]13CCN(CC1CCC1)[C@@H]2Cc1ccc(O)cc13 [TR-5306, 17-Cyclobutylmethyl-3-hydroxy-14-methoxymorphinan-6-one Hydrochloride]
AD50 (Test B): inactive at dose stated (rats; rats, tail flick vs morphine): IA
agonist/antagonist profile [1]: pure analgesics
ED50 (mice; [4]): 0.007 mg/kg

CO[C@@]12[C@H](C)CC(=O)C[C@@]13CCN(CC=C(C)C)[C@@H]2Cc1ccc(O)cc13.Cl [TR-5310, 17-Dimethylallyl-3-hydroxy-14-methoxy-8α-methylmorphinan-6-one Hydrochloride]
AD50 (Test B): inactive at dose stated (rats; rats, tail flick vs morphine): IA
agonist/antagonist profile [1]: pure analgesics
ED50 (mice; [4]): 0.18 mg/kg

CO[C@@]12CCC(=O)C[C@@]13CCN(CC1CC1)[C@@H]2Cc1ccc(O)cc13.Cl [TR-5325, 17-Cyclopropylmethyl-3-hydroxy-14-methoxymorphinan-6-one Hydrochloride]
ED50 (rats; [3]): 0.35 mg/kg
agonist/antagonist profile ([1]; Hydrochloride): mixed analgesic (agonist) and narcotic antagonist activity
ED50 (mice; [4]): 0.45 mg/kg

COc1ccc2c(c1)[C@]13CCN(CC4CCCO4)[C@H](C2)[C@]1(OC)CCC(=O)C3.Cl (stereo partly shown) [TR-5326, 3,14-Dimethoxy-17-tetrahydrofurfurylmorphinan-6-one Hydrochloride]
AD50 (Test B): inactive at dose stated (rats; rats, tail flick vs morphine): IA
agonist/antagonist profile [1]: pure analgesics
ED50 (mice; [4]): 0.16 mg/kg

COc1ccc2c(c1)[C@]13CCN(CC4CCCO4)[C@H](C2)[C@]1(OC)[C@H](C)CC(=O)C3.Cl (stereo partly drawn) [TR-5327, 17-Tetrahydrofurfuryl-3,14-dimethoxy-8α-methylmorphinan-6-one Hydrochloride]
AD50 (Test B): inactive at dose stated (rats; rats, tail flick vs morphine): IA
agonist/antagonist profile [1]: pure analgesics
ED50 (mice; [4]): 1.85 mg/kg

CO[C@@]12CCC(=O)C[C@@]13CCN(CC1CCCO1)[C@@H]2Cc1ccc(O)cc13 (stereo partly shown) [TR-5340, 3-Hydroxy-14-methoxy-17-tetrahydrofurfurylmorphinan-6-one]
AD50 (Test B): inactive at dose stated (rats; rats, tail flick vs morphine): IA
agonist/antagonist profile [1]: pure analgesics
ED50 (mice; [4]): 0.03 mg/kg

COc1ccc2c(c1)[C@]13CCN(CC4CC4)[C@H](C2)[C@]1(OC)CCC(=O)C3 [TR-5400, 17-Cyclopropylmethyl-3,14-dimethoxymorphinan-6-one]
AD50 (Test B, narcotic antagonist activity) (rats; [5]): 0.64 mg/kg
ED50 (Test A, acetic acid mouse writhing test) (mice; subcutaneous, 15 min before acetic acid, dose reducing writhes by 50%): 0.89 mg/kg

C[C@H]1[C@H]2Cc3ccc(O)cc3[C@]1(C)CCN2CC1CC1 [cyclazocine]
analgesic / narcotic antagonist activity (literature) [2]: mixed analgesic/narcotic antagonist activity
